Holding throughout (format): physicochemical
A short description of data set [1]: Fluorescence emission spectroscopy. Particulars: emission maximum. From the text:
(§1) All manipulation with photosensitive samples were accomplished under the red light (λ>600 nm). In the spectroscopy measurements, the lowest possible intensity of incident light was used; the spectroscopic identity of the samples was confirmed after each measurement to ensure that no unwanted photodegradation processes occurred. All measurements were accomplished using fresh solutions prepared in the dark. ^1H and ^13C NMR spectra were obtained in CDCl3 on 101, 125, 400 and 500 MHz spectrometers. ^1H chemical shifts are reported in ppm relative to the tetramethylsilane signal (TMS, δ=0.00 ppm), using the residual solvent signal as an internal reference. ^13C NMR chemical shifts are reported in ppm relative to the CDCl3 signal as an internal standard. IR spectra were recorded on an FTIR spectrophotometer. Mass spectra (MS) and high resolution mass spectra (HRMS) were recorded using an ESI and APCI techniques. Absorption spectra and the molar absorption coefficients were obtained on a UV-vis spectrometer with matched 1.0-cm quartz cells. […] A nanosecond flash lamp (filled with H2) was used to determine the fluorescence lifetimes. The data obtained were deconvolved from the measured decay curves of the sample and the instrumental response function. The quantum yields of fluorescence were obtained using a calibrated integration sphere.

A short description of data set [2]: UV-Vis absorption spectroscopy (absorption maximum, extinction coefficient). Particulars: for λmax: absorption maximum, UV-vis; for ε (extinction coefficient): determined by UV-Vis spectroscopy, in M-1cm-1 (unit assumed).
Excerpt: as §1
(§2) The observed substrate release rate as a function of photolysis time is quantified by the quantum efficiency parameter (εϕ), which is the product of the extinction coefficient at the irradiation wavelength (E) and the quantum yield (ϕ). Extinction coefficients for compounds 1-7 were determined by UV-Vis spectroscopy (see Table 1).

Data set [3] in a line: Quantum yield and quantum efficiency of photorelease on irradiation. The settings on record: for εΦ (quantum efficiency): product of extinction coefficient and quantum yield; for Φ (quantum yield): solutions in methanol, λirr 365, 490, 507 nm. Here is the method:
A solution of the given compound (3.0 mL) in a matched 1.0 cm quartz PTFE screw-cap fluorescence cuvette equipped with a stir bar was irradiated with a light source (32 LEDs emitting at the selected wavelength: λmax=365, 490, 507 nm; the bandwidths at half height=30 nm; high-pressure 450 W mercury-xenon arc lamp with a monochromator with 200-1600 nm grating set to 365±0.5 nm). The reaction progress was monitored by UV-vis spectrometry using a diode-array spectrophotometer in a kinetic mode.
Photodegradation quantum yields for both aerated and degassed (freeze-pump-thaw technique; 3 cycles) solutions in methanol were determined at λirr=365 (LEDs and mercury-xenon arc lamp), 490 nm (LEDs), and 507 nm (LEDs) with xanthene-9-carboxylic acidl and BODIPY-CORM2 as actinometers; most values were cross-checked using ferrioxalate3 at λirr=365 nm. The data were processed using single value decomposition (SVD) software assuming the first-order rate law. The amount of absorbed light was calculated from the whole emission spectrum of the light source. […] All quantum yield measurements were repeated at least 6 times with independently prepared samples.
as §2

For the compound “2,6-Diiodo-4,4′-dimethyl-8-chloro ethyl-1,3,5,7-tetramethyl-4-bora-3a,4a-diaza-s-indacene [Compound 5]”, in data set [1], the λem is 573 nm. For the same compound, in data set [2], the λmax is 542 nm and the “ε (extinction coefficient)” value is 62,400. In data set [3], the “εΦ (quantum efficiency)” value is 59,280 M^−1cm^−1 and the “Φ (quantum yield)” value was determined as 0.95.
As for `CC1=CC(C)=[N+]2C1=C(CCl)c1c(C)cc(C)n1[B-]2(C)C` [Compound 1, 4,4′-Dimethyl-8-chloromethyl-1,3,5,7-tetramethyl-4-bora-3a,4a-diaza-s-indacene], the λem in data set [1] is recorded as 556 nm. Further, in data set [2], the λmax turned out to be 519 nm and the “ε (extinction coefficient)” value was 60,580. Also, in data set [3], the “εΦ (quantum efficiency)” value is 41,194 M^−1cm^−1 and the “Φ (quantum yield)” value is on record as 0.68.
As to `CC1=CC(C)=[N+]2C1=C(COC(=O)Cc1ccccc1)c1c(C)cc(C)n1[B-]2(C)C` [Compound 2, 4,4′-Dimethyl-8-methyl(2-phenylacetate)-1,3,5,7-tetramethyl-4-bora-3a,4a-diaza-s-indacene], the λem in data set [1] was 550 nm. In addition, in data set [2], the λmax came to 512 nm and the “ε (extinction coefficient)” value is recorded as 68,500. Further, in data set [3], the “εΦ (quantum efficiency)” value is 7,398 M^−1cm^−1 and the “Φ (quantum yield)” value is reported as 0.11.
Regarding `CC[B-]1(CC)n2c(C)cc(C)c2C(COC(=O)Cc2ccccc2)=C2C(C)=CC(C)=[N+]21` [Compound 3, 4,4′-Diethyl-8-methyl-(2-phenylacetate)-1,3,5,7-tetramethyl-4-bora-3a,4a-diaza-s-indacene], the λem in data set [1] was determined as 550 nm. Besides, in data set [2], the λmax turned out to be 513 nm and the “ε (extinction coefficient)” value is 55,300. Further, in data set [3], the “εΦ (quantum efficiency)” value is given as 4,424 M^−1cm^−1 and the “Φ (quantum yield)” value came to 0.08.
For `CC1=CC(C)=[N+]2C1=C(COC(=O)Cc1ccccc1)c1c(C)cc(C)n1[B-]2(c1ccccc1)c1ccccc1` [Compound 4, 4,4′-Diphenyl-8-methyl-(2-phenylacetate)-1,3,5,7-tetramethyl-4-bora-3a,4a-diaza-s-indacene], the λem in data set [1] was determined as 562 nm. Besides, in data set [2], the λmax amounted to 517 nm and the “ε (extinction coefficient)” value is reported as 58,300. Also, in data set [3], the “εΦ (quantum efficiency)” value was determined as 583 M⁻¹ cm⁻¹ and the “Φ (quantum yield)” value is recorded as 0.01.
`CC1=C(I)C(C)=[N+]2C1=C(COC(=O)Cc1ccccc1)c1c(C)c(I)c(C)n1[B-]2(C)C` [Compound 6, 2,6-Diiodo-4,4′-dimethyl-8-methyl-(2-phenylacetate)-1,3,5,7-tetramethyl-4-bora-3a,4a-diaza-s-indacene] returned a λem in data set [1] of 572 nm. Also, in data set [2], the λmax came to 538 nm and the “ε (extinction coefficient)” value was 60,700. In data set [3], the “εΦ (quantum efficiency)” value is on record as 16,996 M^−1cm^−1 and the “Φ (quantum yield)” value was found to be 0.28.

Source of the values: patent publication US10493153B2, “Alkylated photoremovable protecting groups and uses thereof” (Iowa State University Research Foundation, Inc., priority 2018, dated 2019).
